Data from patent US8389532B2, “7-[2-[4-(6-fluoro-3-methyl-1,2-benzisoxazol-5-yl)-1-piperazinyl]ethyl]-2-(1-propynyl)-7H-pyrazolo-[4,3-E]-[1,2,4]-triazolo-[1,5-C]-pyrimidin-5-amine” (Merck Sharp & Dohme Corp., priority 2005, dated 2013).

What was measured:
haloperidol-induced EPS = experiment: EPS assay in haloperidol-sensitized Cebus apella monkeys; assay type: in vivo; conditions: 30 mg/kg co-administered with haloperidol 0.3 mg/kg
Protocol: A test compound is administered orally (p.o.) at a dose ranging from 0.3-30 mg/kg, in conjunction with haloperidol. The studies are conducted using a within-subjects design such that each monkey receives all treatments (vehicle and doses of test compound) in a crossover, balanced design. The reduction in the maximum EPS score, as well as the dose-dependent delay in the onset of EPS are determined. In the EPS assay, four haloperidol-sensitized monkeys were co-administered the compound of formula I (30 mg/kg) and haloperidol (0.3 mg/kg) in a banana. A scoring system to rate the severity of each symptom was employed over a 6 hour observation period.

[1] = target: T1, Human A2a Adenosine Receptor (Homo sapiens, UniProt P29274); experiment: Human adenosine A2a receptor competition binding assay; conditions: [3H]-SCH 58261 0.5 nM, human A2a membranes
T1 construct: purchased Perkin Elmer Life Sciences RBHA2AM
T1 sequence (P29274 whole entry): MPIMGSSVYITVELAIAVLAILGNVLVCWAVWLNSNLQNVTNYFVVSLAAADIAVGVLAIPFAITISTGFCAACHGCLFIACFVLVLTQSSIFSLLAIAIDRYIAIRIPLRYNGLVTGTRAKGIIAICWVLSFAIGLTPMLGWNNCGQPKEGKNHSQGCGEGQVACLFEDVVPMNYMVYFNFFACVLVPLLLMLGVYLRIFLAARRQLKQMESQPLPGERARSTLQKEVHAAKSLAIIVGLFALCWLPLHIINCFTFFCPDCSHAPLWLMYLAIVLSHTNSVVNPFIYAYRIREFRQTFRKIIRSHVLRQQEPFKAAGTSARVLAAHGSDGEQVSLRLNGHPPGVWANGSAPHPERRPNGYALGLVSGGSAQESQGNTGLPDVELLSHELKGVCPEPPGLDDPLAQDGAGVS
Protocol: (§1) Human Adenosine A2a and A1 Receptor Competition Binding Assay Protocol
A2a: Human A2a Adenosine Receptor membranes, Catalog #RBHA2AM, Perkin Elmer Life Sciences, Shelton Conn. Dilute to 17 μg/100 μl in membrane dilution buffer (see below).
(§2) Membrane dilution buffer: Dulbecco's Phosphate Buffered Saline (Gibco/BRL)+10 mM MgCl2.
(§3) Compound Dilution Buffer: Dulbecco's Phosphate Buffered Saline (Gibco/BRL)+10 mM MgCl2 supplemented with 1.6 mg/ml methyl cellulose and 16% DMSO. Prepared fresh daily.
A2a: [3H]-SCH 58261, custom synthesis, AmershamPharmacia Biotech, Piscataway, N.J. Stock is prepared at 1 nM in membrane dilution buffer. Final assay concentration is 0.5 nM.
A2a: To determine non-specific binding, add 100 nM CGS 15923 (RBI, Natick, Mass.). Working stock is prepared at 400 nM in compound dilution buffer.
(§4) Prepare 1 mM stock solutions of compounds in 100% DMSO. Dilute in compound dilution buffer. Test at 10 concentrations ranging from 3 μM to 30 pM. Prepare working solutions at 4× final concentration in compound dilution buffer.
(§5) Perform assays in deep well 96 well plates. Total assay volume is 200 μl. Add 50 μl compound dilution buffer (total ligand binding) or 50 μl CGS 15923 working solution (A2a non-specific binding) or 50 μl NECA working solution (A1 non-specific binding) or 50 μl of drug working solution. Add 50 μl ligand stock ([3H]-SCH 58261 for A2a, [3H]-DPCPX for A1). […]

6-OHDA lesioned rats = experiment: 6-OHDA lesion of the middle forebrain bundle in rats (contralateral turning with subthreshold L-DOPA); assay type: in vivo, rat; conditions: combined with sub-threshold L-DOPA
Protocol: 6-OHDA Lesion of the Middle Forebrain Bundle in Rats
Adult male Sprague-Dowley rats (Charles River, Calco, Como, Italy), weighing 275-300 g, are used in all experiments. The rats are housed in groups of 4 per cage, with free access to food and water, under controlled temperature and 12 hour light/dark cycle. The day before the surgery the rats are fasted over night with water ad libitum.
Unilateral 6-hydroxydopamine (6-OHDA) lesion of the middle forebrain bundle is performed according to the method described by Ungerstedt et al. (Brain Research, 1971, 6-OHDA and Cathecolamine Neurons, North Holland, Amsterdam, 101-127), with minor changes. Briefly, the animals are anaesthetized with chloral hydrate (400 mg/kg, ip) and treated with desipramine (10 mpk, ip) 30 min prior to 6-OHDA injection in order to block the uptake of the toxin by the noradrenergic terminals. Then, the animals are placed in a stereotaxic frame. The skin over the skull is reflected and the stereotaxic coordinates (−2.2 posterior from bregma (AP), +1.5 lateral from bregma (ML), 7.8 ventral from dura (DV) are taken, according to the atlas of Pellegrino et al (Pellegrino L. J., Pellegrino A. S. and Cushman A. J., A Stereotaxic Atlas of the Rat Brain, 1979, New York: Plenum Press). A burr hole is then placed in the skull over the lesion site and a needle, attached to a Hamilton syringe, is lowered into the left MFB. Then 8 μg 6-OHDA-HCl is dissolved in 4 μl of saline with 0.05% ascorbic acid as antioxidant, and infused at the constant flow rate of 1 μl/1 min using an infusion pump. The needle is withdrawn after additional 5 min and the surgical wound is closed and the animals left to recover for 2 weeks.
Any rat not showing at least 200 complete turns/2 h is not included in the study.
Selected rats receive the test drug 3 days after the priming test (maximal dopamine receptor supersensitivity).

[2] = test system: haloperidol-induced catalepsy; experiment: Haloperidol-induced catalepsy in the rat; assay type: in vivo; conditions: @ 4 h, rats
Protocol: Haloperidol-Induced Catalepsy in the Rat Male Sprague-Dawley rats (Charles River, Calco, Italy) weighing 175-200 g are used. The cataleptic state is induced by the subcutaneous administration of the dopamine receptor antagonist haloperidol (1 mg/kg, sc), 90 min before testing the animals on the vertical grid test. For this test, the rats are placed on the wire mesh cover of a 25×43 plexiglass cage placed at an angle of about 70 degrees with the bench table. The rat is placed on the grid with all four legs abducted and extended (“frog posture”). The use of such an unnatural posture is essential for the specificity of this test for catalepsy. The time span from placement of the paws until the first complete removal of one paw (descent latency) is measured maximally for 120 sec. The selective A2A adenosine antagonists under evaluation are administered orally at doses ranging between 0.03 and 3 mg/kg, 1 and 4 h before scoring the animals.

A1 receptor = target: T2, A1 receptor (Homo sapiens, UniProt P30542); experiment: Human adenosine A1 receptor competition binding assay (selectivity vs A2a); conditions: A1 ligand [3H]-DPCPX
T2 sequence (P30542 1-326): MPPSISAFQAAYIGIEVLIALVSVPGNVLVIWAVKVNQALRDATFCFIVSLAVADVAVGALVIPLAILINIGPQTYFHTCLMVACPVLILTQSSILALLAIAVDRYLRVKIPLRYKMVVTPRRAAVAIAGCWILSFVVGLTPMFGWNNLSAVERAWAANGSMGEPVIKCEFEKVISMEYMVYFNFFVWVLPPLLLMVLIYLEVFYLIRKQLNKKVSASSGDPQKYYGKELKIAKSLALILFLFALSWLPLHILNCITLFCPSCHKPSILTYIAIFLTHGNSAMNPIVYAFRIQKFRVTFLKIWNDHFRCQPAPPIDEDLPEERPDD
Protocol: as §1, §2, §3
A1: [3H]-DPCPX, AmershamPharmacia Biotech, Piscataway, N.J. Stock is prepared at 2 nM in membrane dilution buffer. Final assay concentration is 1 nM.
A1: To determine non-specific binding, add 100 μM NECA (RBI, Natick, Mass.). Working stock is prepared at 400 μM in compound dilution buffer.
as §4
as §5, with “A1). Add 100 μl of diluted membranes containing the appropriate receptor. Mix. Incubate at room temperature for 90 minutes.” for “A1).”
Selectivity is determined by dividing Ki for A1 receptor by Ki for A2a receptor. […]

A2a receptor = target: T3, A2a receptor (Rattus norvegicus, UniProt P30543); experiment: Ex vivo binding study to show duration of receptor occupancy (striatal homogenate, 3H-SCH 58261); assay type: in vivo; conditions: rats dosed 1 mg/kg; for receptor occupancy at 1 mg/kg: rat, 4 hours prior to sacrifice, read-out: decrease in 3H-SCH 58261 binding (receptor occupancy)
T3 construct: The A2a receptor-rich striatal nucleus was dissected and homogenized in buffer solution; from tissue; host or cells: rat striatum homogenate
T3 sequence (P30543 whole entry): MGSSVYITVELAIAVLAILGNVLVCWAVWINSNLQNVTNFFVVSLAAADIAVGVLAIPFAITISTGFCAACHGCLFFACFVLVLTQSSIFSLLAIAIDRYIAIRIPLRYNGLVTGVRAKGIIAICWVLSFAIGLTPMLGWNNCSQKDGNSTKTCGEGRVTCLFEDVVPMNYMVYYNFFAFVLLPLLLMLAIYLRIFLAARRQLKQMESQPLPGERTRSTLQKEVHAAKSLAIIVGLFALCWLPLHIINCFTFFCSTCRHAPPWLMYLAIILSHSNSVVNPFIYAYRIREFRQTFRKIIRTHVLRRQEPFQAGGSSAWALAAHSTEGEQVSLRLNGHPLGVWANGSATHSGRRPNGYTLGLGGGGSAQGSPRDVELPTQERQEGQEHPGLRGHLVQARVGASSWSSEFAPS
Protocol: Ex Vivo Binding Study to Show Duration of Receptor Occupancy:
Rats were dosed with 1 mg/kg of the compound of formula I and the compound of formula II (generically disclosed in U.S. Pat. No. 6,897,217)
[drawing 4] for 4, 8, 12, and 16 hours prior to sacrifice and removal of brains. The A2a receptor-rich striatal nucleus was dissected and homogenized in buffer solution. Striatal homogenate was incubated with the A2a antagonist radioligand ^3H-SCH 58261 (see WO 96/38728) prior to separation of bound and free radioactivity by filtration. Bound radioligand on filters was dried, soaked with scintillation fluid, and counted. Homogenates from striata of vehicle-treated rats treated with the same experimental conditions defined the quantity of bound radioligand in the absence of test compound.

SMILES	effect on haloperidol-induced EPS, three of four subjects (haloperidol-induced EPS; 6 hr observation period)	effect on haloperidol-induced EPS, fourth subject (haloperidol-induced EPS; compared with haloperidol alone)	Ki [1]	contralateral turning (6-OHDA lesioned rats; 0.1 mpk orally)	contralateral turning (6-OHDA lesioned rats; 0.3 mpk orally)	contralateral turning (6-OHDA lesioned rats; 1 mpk orally)	contralateral turning (6-OHDA lesioned rats; 3 mpk orally)	inhibition of catalepsy ([2]; 0.3 mpk orally)	inhibition of catalepsy ([2]; 1 mpk orally)	inhibition of catalepsy ([2]; 3 mpk orally)	Selectivity (Ki for A1 receptor divided by Ki for A2a receptor) (A1 receptor)	receptor occupancy at 1 mg/kg (A2a receptor)	displacement of radiolabel (3H-SCH 58261) (A2a receptor; 12 hours)	3H-SCH 58261 radioligand binding (receptor occupancy) (A2a receptor; 8 hours)
CC#Cc1nc2c3cnn(CCN4CCN(c5cc6c(C)noc6cc5F)CC4)c3nc(N)n2n1 [compound of formula I, 7-[2-[4-(6-fluoro-3-methyl-1,2-benzisoxazol-5-yl)-1-piperazinyl]ethyl]-2-(1-propynyl)-7H-pyrazolo-[4,3-e]-[1,2,4]-triazolo[1,5-c]pyrimidin-5-amine]	completely blocked haloperidol-induced EPS	delayed onset and reduced severity of EPS	0.43 nM	218±142 rotations	406±167 rotations	360±178 rotations	403±125 rotations	28%	47%	53%	greater than 2500 fold	42%	40%	
CC#Cc1nc2c3cnn(CCN4CCN(c5cc(-c6noc(C)n6)ccc5F)CC4)c3nc(N)n2n1 [formula II, reference compound]												47%		restored to near vehicle-treated levels
